Test results published in patent publication US20140005163A1 (NOVARTIS AG, priority 2010, published 2014).

Columns and labels:
[1] = target: T1, PI3K delta (Homo sapiens, UniProt O00329); experiment: PI3K delta kinase assay (Kinase-Glo luminescence); assay type: biochemical
T1 construct: for the full-length p110-d subunit are generated and fused by overlapping PCR; p85(iSH2) fusion partner (see partner chain) (N); His tag (C); made in house; host or cells: baculovirus; Tn5 (Trichoplusia ni) or TiniPro insect cells
Summary of the method: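 Lipid kinase activity of a His-tagged p110δ full-length/p85 iSH2 fusion (10 nM) toward bovine liver phosphatidylinositol (10 μg/mL) at 1 μM ATP, pH 7.5, 60 min, room temperature. ATP consumption is quantified by luciferase-based luminescence. Four-parameter logistic fitting gives IC50.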

[2] = target: T2, PI3K beta (Homo sapiens, UniProt P42338); experiment: PI3K beta kinase assay (Kinase-Glo luminescence); assay type: biochemical
T2 construct: for the full-length p110-b subunit are generated and fused by overlapping PCR; p85(iSH2) fusion partner (see partner chain) (N); His tag (C); made in house; host or cells: baculovirus; Tn5 (Trichoplusia ni) or TiniPro insect cells
Summary of the method: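 Kinase-Glo luminescence after a 60 min room-temperature reaction gives remaining ATP. The reaction holds 25 nM p85(iSH2)-p110β full-length His-tagged construct, 1 μM ATP, 10 μg/mL PI, and eight compound concentrations at 0.45% DMSO final. IC50 values come from a four-parameter logistic fit.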

[3] = target: T3, mTOR (Homo sapiens, UniProt P42345); experiment: Biochemical assay for m-TOR by TR-FRET; settings: 8 μM ATP, 400 nM GFP-4EBP1, 0.5 nM mTOR
T3 construct: purchased Invitrogen Corporation (Carlsbad/CA, USA) PV4753
Summary of the method: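 TR-FRET read-out: Tb-labelled anti-p4EBP1 pThr46 antibody (0.5 nM), added in EDTA to stop the reaction, detects phosphorylated GFP-4EBP1 after 15 min. Kinase step used 0.5 nM mTOR, 400 nM substrate, 8 μM ATP, MnCl2-containing HEPES buffer pH 7.5, room temperature.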

T1 sequence (O00329 with tags, fused parts or gaps limits assumed): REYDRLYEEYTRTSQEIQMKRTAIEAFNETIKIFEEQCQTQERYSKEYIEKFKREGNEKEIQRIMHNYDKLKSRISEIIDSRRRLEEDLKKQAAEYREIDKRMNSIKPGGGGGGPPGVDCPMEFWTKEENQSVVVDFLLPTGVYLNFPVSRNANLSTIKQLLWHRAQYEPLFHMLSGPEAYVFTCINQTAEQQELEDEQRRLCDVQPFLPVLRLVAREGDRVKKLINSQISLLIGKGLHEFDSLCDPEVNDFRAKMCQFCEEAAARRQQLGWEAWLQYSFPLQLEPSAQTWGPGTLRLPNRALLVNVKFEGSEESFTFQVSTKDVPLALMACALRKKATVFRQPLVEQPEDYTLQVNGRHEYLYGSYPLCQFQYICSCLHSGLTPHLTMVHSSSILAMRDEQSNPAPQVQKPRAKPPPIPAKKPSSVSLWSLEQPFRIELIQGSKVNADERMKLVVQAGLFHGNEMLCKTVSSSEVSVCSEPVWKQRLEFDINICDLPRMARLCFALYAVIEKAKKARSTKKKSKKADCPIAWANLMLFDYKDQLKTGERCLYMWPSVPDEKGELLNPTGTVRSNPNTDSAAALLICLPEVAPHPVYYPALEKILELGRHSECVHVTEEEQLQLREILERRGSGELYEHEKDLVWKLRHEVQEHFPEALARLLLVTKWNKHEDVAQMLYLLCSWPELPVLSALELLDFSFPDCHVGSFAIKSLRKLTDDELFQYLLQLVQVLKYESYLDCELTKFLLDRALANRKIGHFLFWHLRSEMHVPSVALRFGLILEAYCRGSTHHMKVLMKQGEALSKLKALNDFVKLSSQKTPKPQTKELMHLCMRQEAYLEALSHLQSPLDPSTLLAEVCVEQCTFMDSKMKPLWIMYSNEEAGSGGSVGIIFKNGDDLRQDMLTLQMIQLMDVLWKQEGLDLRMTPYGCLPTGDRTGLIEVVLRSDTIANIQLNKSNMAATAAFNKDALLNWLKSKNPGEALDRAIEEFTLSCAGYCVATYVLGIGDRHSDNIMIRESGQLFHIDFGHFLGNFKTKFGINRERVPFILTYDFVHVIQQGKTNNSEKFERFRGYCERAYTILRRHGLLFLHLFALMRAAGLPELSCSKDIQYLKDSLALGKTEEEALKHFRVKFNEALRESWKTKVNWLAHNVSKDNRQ
T3 sequence (P42345 1360-2549 limits assumed): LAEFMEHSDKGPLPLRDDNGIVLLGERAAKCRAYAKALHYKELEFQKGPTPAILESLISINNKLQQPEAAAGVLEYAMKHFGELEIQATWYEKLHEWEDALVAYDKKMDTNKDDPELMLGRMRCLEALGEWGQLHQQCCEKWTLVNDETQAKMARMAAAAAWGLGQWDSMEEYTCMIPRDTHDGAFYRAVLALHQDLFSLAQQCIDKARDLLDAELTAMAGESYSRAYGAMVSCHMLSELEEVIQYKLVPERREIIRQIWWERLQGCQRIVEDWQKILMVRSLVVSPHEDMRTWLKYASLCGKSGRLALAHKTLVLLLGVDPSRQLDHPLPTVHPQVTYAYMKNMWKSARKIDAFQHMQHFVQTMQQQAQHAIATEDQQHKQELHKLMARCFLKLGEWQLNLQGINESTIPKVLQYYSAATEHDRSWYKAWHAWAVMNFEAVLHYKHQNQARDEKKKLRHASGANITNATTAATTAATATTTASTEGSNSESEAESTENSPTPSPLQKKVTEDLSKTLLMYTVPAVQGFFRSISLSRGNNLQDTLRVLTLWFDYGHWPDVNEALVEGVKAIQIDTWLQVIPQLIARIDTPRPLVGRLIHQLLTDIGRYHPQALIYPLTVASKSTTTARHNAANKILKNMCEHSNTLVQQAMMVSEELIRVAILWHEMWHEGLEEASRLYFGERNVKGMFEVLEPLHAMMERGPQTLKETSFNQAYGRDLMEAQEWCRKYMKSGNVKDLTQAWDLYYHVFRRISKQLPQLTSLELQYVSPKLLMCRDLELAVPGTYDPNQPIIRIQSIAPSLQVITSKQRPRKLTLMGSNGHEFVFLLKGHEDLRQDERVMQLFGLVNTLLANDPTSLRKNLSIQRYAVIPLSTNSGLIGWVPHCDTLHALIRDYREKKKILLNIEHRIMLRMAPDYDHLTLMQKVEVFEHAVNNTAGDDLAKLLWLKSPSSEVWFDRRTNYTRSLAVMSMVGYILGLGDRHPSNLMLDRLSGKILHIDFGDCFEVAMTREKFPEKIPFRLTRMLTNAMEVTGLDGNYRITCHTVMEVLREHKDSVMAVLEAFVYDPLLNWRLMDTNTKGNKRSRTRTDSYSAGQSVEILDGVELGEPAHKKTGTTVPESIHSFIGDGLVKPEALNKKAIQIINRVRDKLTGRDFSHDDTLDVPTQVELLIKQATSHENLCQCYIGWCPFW
T2 sequence (P42338 with tags, fused parts or gaps limits assumed): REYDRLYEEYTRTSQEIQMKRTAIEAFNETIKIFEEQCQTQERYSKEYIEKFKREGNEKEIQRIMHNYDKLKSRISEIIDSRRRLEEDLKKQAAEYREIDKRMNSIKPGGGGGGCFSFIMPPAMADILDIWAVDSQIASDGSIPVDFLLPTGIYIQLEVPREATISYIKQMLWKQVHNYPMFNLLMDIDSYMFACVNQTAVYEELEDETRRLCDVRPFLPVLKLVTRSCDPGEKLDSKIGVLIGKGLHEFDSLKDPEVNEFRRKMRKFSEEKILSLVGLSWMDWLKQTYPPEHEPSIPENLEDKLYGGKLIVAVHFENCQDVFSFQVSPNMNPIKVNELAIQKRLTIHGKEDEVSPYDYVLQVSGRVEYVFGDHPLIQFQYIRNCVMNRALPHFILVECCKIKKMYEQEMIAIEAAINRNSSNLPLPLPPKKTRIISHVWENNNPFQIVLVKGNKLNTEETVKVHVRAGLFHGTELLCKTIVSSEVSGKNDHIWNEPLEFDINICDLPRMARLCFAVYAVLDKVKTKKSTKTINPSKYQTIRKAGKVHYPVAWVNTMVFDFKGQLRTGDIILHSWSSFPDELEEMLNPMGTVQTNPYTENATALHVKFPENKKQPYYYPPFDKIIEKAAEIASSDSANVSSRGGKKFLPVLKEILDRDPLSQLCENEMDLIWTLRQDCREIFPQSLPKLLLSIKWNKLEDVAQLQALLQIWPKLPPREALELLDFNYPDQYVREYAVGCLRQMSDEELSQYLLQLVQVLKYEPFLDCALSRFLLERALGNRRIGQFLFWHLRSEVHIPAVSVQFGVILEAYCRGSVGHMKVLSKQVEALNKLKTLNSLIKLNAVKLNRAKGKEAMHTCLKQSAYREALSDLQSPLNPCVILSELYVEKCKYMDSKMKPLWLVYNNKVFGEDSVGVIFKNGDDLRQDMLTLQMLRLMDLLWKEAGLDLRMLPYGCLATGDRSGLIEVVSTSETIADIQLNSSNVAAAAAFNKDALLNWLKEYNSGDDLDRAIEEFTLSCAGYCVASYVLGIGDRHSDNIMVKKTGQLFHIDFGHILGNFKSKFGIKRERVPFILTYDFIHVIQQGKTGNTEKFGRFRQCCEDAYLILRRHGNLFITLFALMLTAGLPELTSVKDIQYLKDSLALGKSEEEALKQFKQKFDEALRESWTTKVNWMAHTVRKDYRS

Row | SMILES | IC50 [1] | IC50 [2] | IC50 [3]
1 | Cc1nn(C)cc1-n1c(=O)n(C)c2cnc3ccc(-c4cnc5[nH]ccc5c4)cc3c21 [Example 36, 1-(1,3-dimethyl-1H-pyrazol-4-yl)-3-methyl-8-(1H-pyrrolo[2,3-b]pyridin-5-yl)-1,3-dihydro-imidazo[4,5-c]quinolin-2-one] | 24 nM | 32 nM | < 3 nM
2 | CNC(=O)c1ccc(-c2ccc3ncc4c(c3c2)n(-c2cn(C)nc2Cl)c(=O)n4C)cc1 [Example 43.2, 4-[1-(3-Chloro-1-methyl-1H-pyrazol-4-yl)-3-methyl-2-oxo-2,3-dihydro-1H-imidazol[4,5-c]quinolin-8-yl]-N-methyl-benzamide] | 34 nM | 56 nM | 4 nM
3 | CCCOc1ccc(-c2ccc3ncc4c(c3c2)n(-c2cn(C)nc2C)c(=O)n4C)cn1 [Example 55, 1-(1,3-Dimethyl-1H-pyrazol-4-yl)-3-methyl-8-(6-propoxy-pyridin-3-yl)-1,3-dihydro-imidazo[4,5-c]quinolin-2-one] | 132 nM | 951 nM | 25 nM
4 | CCOc1cccc(-c2ccc3ncc4c(c3c2)n(-c2cn(C)nc2C)c(=O)n4C)c1 [Example 57, 1-(1,3-Dimethyl-1H-pyrazol-4-yl)-8-(3-ethoxy-phenyl)-3-methyl-1,3-dihydro-imidazo[4,5-c]quinolin-2-one] | 215 nM | 215 nM | 322 nM
5 | COc1ncc(-c2ccc3ncc4c(c3c2)n(-c2cn(C)nc2C)c(=O)n4C)cc1N(C)C(C)=O [Example 62, N-{5-[1-(1,3-Dimethyl-1H-pyrazol-4-yl)-3-methyl-2-oxo-2,3-dihydro-1H-imidazo[4,5-c]quinolin-8-yl]-2-methoxy-pyridin-3-yl}-N-methyl-acetamide] | 16 nM | 83 nM | 642 nM
6 | Cc1ncc(-c2ccc3ncc4c(c3c2)n(-c2cn(C)nc2C)c(=O)n4C)cc1N(C)S(C)(=O)=O [Example 75, N-{5-[1-(1,3-Dimethyl-1H-pyrazol-4-yl)-3-methyl-2-oxo-2,3-dihydro-1H-imidazo[4,5-c]quinolin-8-yl]-2-methyl-pyridin-3-yl}-N-methyl-methanesulfonamide] | 7 nM | 37 nM | 260 nM
7 | CNc1ncc(-c2ccc3ncc4c(c3c2)n(-c2c(C)nn(C)c2C)c(=O)n4C)cn1 [Example 80.2] | 25 nM | 288 nM | 120 nM
8 | Cc1nn(C)cc1-n1c(=O)n(C)c2cnc3ccc(-c4cnc(N)nc4)cc3c21 [Example 81.1, 8-(2-Amino-pyrimidin-5-yl)-1-(1,3-dimethyl-1H-pyrazol-4-yl)-3-methyl-1,3-dihydro-imidazo[4,5-c]quinolin-2-one] | 39 nM | 91 nM | 4 nM
9 | COCCOc1cc(-c2ccc3ncc4c(c3c2)n(-c2cn(C)nc2C)c(=O)n4C)cnc1C [Example 86.2, 1-(1,3-Dimethyl-1H-pyrazol-4-yl)-8-[5-(2-methoxy-ethoxy)-6-methyl-pyridin-3-yl]-3-methyl-1,3-dihydro-imidazo[4,5-c]quinolin-2-one] | 6 nM | 21 nM | 31 nM
10 | CCNc1cc(-c2ccc3ncc4c(c3c2)n(-c2cn(C)nc2C)c(=O)n4C)cnc1C [Example 87.1, 1-(1,3-Dimethyl-1H-pyrazol-4-yl)-8-(5-ethylamino-6-methyl-pyridin-3-yl)-3-methyl-1,3-dihydro-imidazo[4,5-c]quinolin-2-one] | 10 nM | 21 nM | 3 nM
11 | CCNc1cc(-c2ccc3ncc4c(c3c2)n(-c2c(C)nn(CCOC)c2C)c(=O)n4C)cnc1C [Example 87.4, 8-(5-Ethylamino-6-methyl-pyridin-3-yl)-1-[1-(2-methoxy-ethyl)-3,5-dimethyl-1H-pyrazol-4-yl]-3-methyl-1,3-dihydro-imidazo[4,5-c]quinolin-2-one] | 17 nM | 93 nM | 77 nM
12 | Cc1ncc(-c2ccc3ncc4c(c3c2)n(-c2cn(C)nc2C)c(=O)n4C)cc1N [Example 88.2, 8-(5-Amino-6-methyl-pyridin-3-yl)-1-(1,3-dimethyl-1H-pyrazol-4-yl)-3-methyl-1,3-dihydro-imidazo[4,5-c]quinolin-2-one] | 8 nM | 68 nM | 13 nM
13 | CCNc1cc(-c2ccc3ncc4c(c3c2)n(-c2cn(C)nc2Cl)c(=O)n4C)cnc1OC [Example 90.1, 1-(3-Chloro-1-methyl-1H-pyrazol-4-yl)-8-(5-ethylamino-6-methoxy-pyridin-3-yl)-3-methyl-1,3-dihydro-imidazo[4,5-c]quinolin-2-one] | 31 nM | 39 nM | 5 nM
14 | Cc1nn(C)cc1-n1c(=O)n(C)c2cnc3ccc(-c4ccc(N5CCN(C)CC5)nc4)cc3c21 [Example 96, 1-(1,3-Dimethyl-1H-pyrazol-4-yl)-3-methyl-8-[6-(4-methyl-piperazin-1-yl)-pyridin-3-yl]-1,3-dihydro-imidazo[4,5-c]quinolin-2-one] | 199 nM | 544 nM | 87 nM
15 | COc1ccc(-c2ccc3ncc4c(c3c2)n(-c2cn(CC(=O)N(C)C)nc2C)c(=O)n4C)cn1 [Example 102, 2-{4-[8-(6-Methoxy-pyridin-3-yl)-3-methyl-2-oxo-2,3-dihydro-imidazo[4,5-c]quinolin-1-yl]-3-methyl-pyrazol-1-yl}-N,N-dimethyl-acetamide] | 26 nM | 291 nM | 11 nM
16 | Cc1nn(C(C)C)cc1-n1c(=O)n(C)c2cnc3ccc(-c4ccc(C(N)=O)nc4)cc3c21 [Example 112, 5-[1-(1-Isopropyl-3-methyl-1H-pyrazol-4-yl)-3-methyl-2-oxo-2,3-dihydro-1H-imidazo[4,5-c]quinolin-8-yl]-pyridine-2-carboxylic acid amide] | 209 nM | 391 nM | 20 nM
17 | Cc1nn(C)cc1-n1c(=O)n(C)c2cnc3ccc(-c4cccc(N(C)S(C)(=O)=O)c4)cc3c21 [Example 117, N-{3-[1-(1,3-Dimethyl-1H-pyrazol-4-yl)-3-methyl-2-oxo-2,3-dihydro-1H-imidazo[4,5-c]quinolin-8-yl]-phenyl}-N-methyl-methanesulfonamide] | 147 nM | 907 nM | 470 nM
18 | CNc1ccc(-c2ccc3ncc4c(c3c2)n(-c2cn(C(C)C)nc2C)c(=O)n4C)cn1 [Example 118.1, 1-(1-isopropyl-3-methyl-1H-pyrazol-4-yl)-3-methyl-8-(6-methylamino-pyridin-3-yl)-1,3-dihydro-imidazo[4,5-c]quinolin-2-one] | 18 nM | 302 nM | 5 nM
19 | CNc1ccc(-c2ccc3ncc4c(c3c2)n(-c2cn(CC(=O)N(C)C)nc2C)c(=O)n4C)cn1 [Example 118.3, N,N-Dimethyl-2-{3-methyl-4-[3-methyl-8-(6-methylamino-pyridin-3-yl)-2-oxo-2,3-dihydro-imidazo[4,5-c]quinolin-1-yl]-pyrazol-1-yl}-acetamide] | 84 nM | 695 nM | 9 nM
20 | CNc1ccc(-c2ccc3ncc4c(c3c2)n(-c2cn(C)nc2Cl)c(=O)n4C)cn1 [Example 118.5, 1-(3-Chloro-1-methyl-1H-pyrazol-4-yl)-3-methyl-8-(6-methylamino-pyridin-3-yl)-1,3-dihydro-imidazo[4,5-c]quinolin-2-one] | 5 nM | 41 nM | < 3 nM
21 | CCNc1cncc(-c2ccc3ncc4c(c3c2)n(-c2cn(C)nc2C)c(=O)n4C)c1 [Example 122, 1-(1,3-Dimethyl-1H-pyrazol-4-yl)-8-(5-ethylamino-pyridin-3-yl)-3-methyl-1,3-dihydro-imidazo[4,5-c]quinolin-2-one] | 14 nM | 22 nM | 5 nM
22 | Cc1nn(C)cc1-n1c(=O)n(C)c2cnc3ccc(-c4cnc(N)c(F)c4)cc3c21 [Example 142.2, 8-(6-Amino-5-fluoro-pyridin-3-yl)-1-(1,3-dimethyl-1H-pyrazol-4-yl)-3-methyl-1,3-dihydro-imidazo[4,5-c]quinolin-2-one] | 33 nM | 287 nM | 6 nM
23 | [2H]C([2H])([2H])Nc1ncc(-c2ccc3ncc4c(c3c2)n(-c2c(C)nn(C)c2C)c(=O)n4C)cc1C(F)(F)F [Example 143, 3-Methyl-8-(6-trideuteromethylamino-5-trifluoromethyl-pyridin-3-yl)-1-(1,3,5-trimethyl-1H-pyrazol-4-yl)-1,3-dihydro-imidazo[4,5-c]quinolin-2-one] | 10 nM | 111 nM | 113 nM
24 | CCNc1ncc(-c2ccc3ncc4c(c3c2)n(-c2c(C)nn(C)c2C)c(=O)n4C)cc1C(F)(F)F [Example 145.1, 8-(6-Ethylamino-5-trifluoromethyl-pyridin-3-yl)-3-methyl-1-(1,3,5-trimethyl-1H-pyrazol-4-yl)-1,3-dihydro-imidazo[4,5-c]quinolin-2-one] | 18 nM | 162 nM | 172 nM
